Test results reported in US8859625B2, “Methods to prepare penta-1,4-dien-3-ones and substituted cyclohexanones and derivatives with antitumoral and antiparasitic properties, the compounds and their uses” (Universidade Bandeirante de Sao Paulo-Academia, Paulista …, priority 2006, dated 2014).
In brackets after ≈: the same amount, converted by molar mass. Marks after values point to notes of the source that are not given here.

Legend:
B16F10 melanoma cells = assay: Cytotoxic and antiproliferative effects by the MTT colorimetric method on B16F10 melanoma cells; format: cell-based, murine; conditions: Mus musculus, B16-F10, 24 h, compound diluted in Miglyol 810; 24 hour; from the linear equation; read-out: IC50
From the text: Analysis of Cytotoxic and Antiproliferative Effects of HB-1 Compound and Miglyol 810® as Control by the MTT Colorimetric Method on B16F10 Melanoma Cells.
The colorimetric methodology for the respiratory route of mitochondria MTT (3-(4,5-dimethylthiazol-2-yl)2,5-diphenyl tetrazolium bromide) was used, as described by MOSMANN (1983). This method is based on the reduction of MTT to formazan by living cells. After growth and in vitro confluence of normal and tumoral cells, different concentrations of the HB-1 compound diluted in Miglyol 810® and the diluent-control (Miglyol 810®) have been added on the adhering cells, incubated for 24 hour. After the referred period, 10 μl of MTT (5 mg/mL) were added and incubated for 3 hours in stove with 5% CO2 at 37° C. After this period, the content of the culture plates were centrifuged for 2 minutes at 1800 rpm, at 4° C., the supernatant was removed and 100 μL of dimethyl sulfoxide (DMSO) were added to dissolve formazan crystals previously constituted and precipitated. The absorbances were obtained by an ELISA reader at 540 nm (TiterTek Multiskan) wavelength, with the results obtained shown in FIG. 12.
IC50 Evaluation for B16F10 Melanoma Cells, Obtained from the Linear Equation.

[1] = tested on: promastigote form of Leishmania (L) amazonensis (LV79 isolate); assay: Promastigote viability by the MTT method in RPMI medium; format: cell-based
Protocol: Viability and/or cellular proliferative assays of promastigote and amastigote forms are also performed by the MTT (diphenyl tetrazolium 3-[4,5-dimethylthiazol-2il]2,5-bromide) method as described by Moreira, et al. (Moreira, M. E. C., Del Portillo, H. A., Milder, R. V., Balanco, J. M. F. and Barcinski, M. A. Heat shock induction of apoptosis in promastigotes of the unicellular organism Leishmania (Leishmania) amazonensis, J. Cell Physiol 167, 305-313, 1996), modified.
After incubation of parasitic forms with the compounds, as described above, for predetermined periods of time for each experiment (24, 48, 72 hours, etc.), an 1.0 mL aliquot of cellular suspension is collected from each culture tube or vial and transferred to microcentrifuge tubes, where they are centrifuged at 14.000 rpm for 3 minutes, the culture medium is aspirated and discharged. To the sedimented cells are add 200 μL of PBS. After that, the volume in PBS of the cellular suspensions is splitted into two wells (duplicates of 100 μL each) of a 96 well culture plate. To each duplicate, […] of MTT (5 mg/mL stock solution, […]) are added. After 1 h or 1 h 30 min, at a temperature of 22° C. (promastigotes) or 34° C. (amastigotes), 100 μL of 10% SDS are added to each well to interrupt the reaction, to lyse the cells and to dissolve the formazan crystals, resulting in an homogeneous blue solution appropriate to the absorbance measure by a spectrophotometer for culture microplates (3550 BIORAD model, Richmond, Calif.), at 595 nm as test wavelength and 690 nm as the reference wavelength.
The optical density (O.D.) values correspond to MTT enzymatic reduction by the metabolic active cells. Consequently, the O.D. is directly proportional to the number of viable cells of the cellular suspension. The progressive increase of O.D. indicates cellular proliferation. Results are expressed as arithmetic average of the optical density duplicates.
Blanks of reaction are obtained by incubating of the specific medium employed in each assay, in addition to MTT, and different HB-1 concentrations. The brownish-yellow color of HB-1 exerts certain interference on the colorimetric assay at different magnitudes, according to the medium and to HB-1 concentration. In general the O.D. blank ranged among assays from 0.002 to 0.020.
In this assay, viability of the promastigote form Leishmania is assessed by the MTT method, when incubated in RPMI medium, in the presence of HB-1 or of its respective controls in DMSO. It is also possible to verify if the effect of HB-1 could be detected in the stationary phase of the growth curve.
For the incubations, promastigotes of the LV79 isolate, in 1st passage and in Day 7 of culture, are employed, from a 1.0×10^6/mL as initial inoculum. The final reaction volume is of 3.0 mL. The results of the viability determination for the promastigote forms of Leishmania (L) amazonensis treated with HB-1 in RPMI medium are shown in the next Table and in FIG. 35.

SMILES: COc1cc(C=CC(=O)C=Cc2ccc(O)c(OC)c2)ccc1O [HB-1, 1,5-Bis-(4-hydroxy-3-methoxy-phenyl)-penta-1,4-dien-3-one]
- IC50 (B16F10 melanoma cells): 7 µg/mL (≈ 21.4 µM)
- Optical Density 595/690 nm (average value from duplicates) ([1]; HB-1 3.12 μg/mL, 24 hours): 0.062
- Optical Density 595/690 nm (average value from duplicates) ([1]; HB-1 3.12 μg/mL, 48 hours): 0.085
- Optical Density 595/690 nm (average value from duplicates) ([1]; HB-1 3.12 μg/mL, 72 hours): 0.104*
- Optical Density 595/690 nm (average value from duplicates) ([1]; HB-1 3.12 μg/mL, 144 hours): 0.021
- effect in words ([1]; HB-1 6.25 μg/mL): leishmaniostatic effect
- Optical Density 595/690 nm (average value from duplicates) ([1]; HB-1 6.25 μg/mL, 24 hours): 0.039
- Optical Density 595/690 nm (average value from duplicates) ([1]; HB-1 6.25 μg/mL, 48 hours): 0.033
- Optical Density 595/690 nm (average value from duplicates) ([1]; HB-1 6.25 μg/mL, 72 hours): 0.044
- Optical Density 595/690 nm (average value from duplicates) ([1]; HB-1 6.25 μg/mL, 144 hours): 0.031
- Optical Density 595/690 nm (average value from duplicates) ([1]; HB-1 12.5 μg/mL, 24 hours): 0.010
- Optical Density 595/690 nm (average value from duplicates) ([1]; HB-1 12.5 μg/mL, 48 hours): 0.004
- Optical Density 595/690 nm (average value from duplicates) ([1]; HB-1 12.5 μg/mL, 72 hours): 0.003
- Optical Density 595/690 nm (average value from duplicates) ([1]; HB-1 12.5 μg/mL, 144 hours): 0.005
- Optical Density 595/690 nm (average value from duplicates) ([1]; HB-1 25 μg/mL, 24 hours): 0.004
- Optical Density 595/690 nm (average value from duplicates) ([1]; HB-1 25 μg/mL, 48 hours): 0.005
- Optical Density 595/690 nm (average value from duplicates) ([1]; HB-1 25 μg/mL, 72 hours): 0.002
- Optical Density 595/690 nm (average value from duplicates) ([1]; HB-1 25 μg/mL, 144 hours): 0.005
- Optical Density 595/690 nm (average value from duplicates) ([1]; HB-1 50 μg/mL, 24 hours): 0.008
- Optical Density 595/690 nm (average value from duplicates) ([1]; HB-1 50 μg/mL, 48 hours): 0.004
- Optical Density 595/690 nm (average value from duplicates) ([1]; HB-1 50 μg/mL, 72 hours): 0.005
- Optical Density 595/690 nm (average value from duplicates) ([1]; HB-1 50 μg/mL, 144 hours): 0.005
- Optical Density 595/690 nm (average value from duplicates) ([1]; HB-1 100 μg/mL, 24 hours): 0.016
- Optical Density 595/690 nm (average value from duplicates) ([1]; HB-1 100 μg/mL, 48 hours): 0.012
- Optical Density 595/690 nm (average value from duplicates) ([1]; HB-1 100 μg/mL, 72 hours): 0.011
- Optical Density 595/690 nm (average value from duplicates) ([1]; HB-1 100 μg/mL, 144 hours): 0.011
- effect in words ([1]; HB-1 above 12.5 μg/mL): clear leishmanicidal effect
- cell viability in words ([1]; HB-1 between 6.25 μg/mL and 100 μg/mL, since first 24 hours): irreversibly compromise cell viability
